Data on 2 molecules can be found in patent US11433069B2, “Methods of use and pharmaceutical combinations comprising histone deacetylase inhibitors and JAK1/2 inhibitors” (University of Modena and Reggio Emilia, priority 2017, dated 2022).

The test system of assay [1] is 12 hematological cancer cell lines. The assay can be described thus: MTT cell viability, single agents. As to conditions: panel of 12 lymphoid malignant cell lines, 24-48 hours, range over cell lines. Type of assay: cell-based. The procedure:
Momelotinib induces dose and time dependent manner growth inhibition in a panel of twelve lymphoid malignant cell lines. Multiple myeloma cells (U266, RPM18266), B-cell lymphoma cells (RL, WSU-NHL, Karpas-422), chronic lymphocytic leukemia cells (MEC-1), mantle cell lymphoma cells (Granta-519, Jeko-1), cutaneous T cell lymphoma cells (Hut-78), anaplastic large cell lymphoma cells (Karpas-299), and Hodgkin lymphoma cells (L-1236, L-540) were treated with a serial dosage of momelotinib (1-10 μM) for 24-48 hours.
Momelotinib and Compound A alone and in combination were tested in 12 hematological cancer cell lines: B-cell lymphomas (WSU-NHL, RL, Karpas-422), mantle cell lymphoma (Granta-519, Jeko-1), cutaneous T cell lymphoma (Hut-78), anaplastic large cell lymphoma (Karpas-299), Hodgkin lymphoma (L-1236, L-540), multiple myeloma (U266, RPM18266) and chronic lymphocytic leukemia (MEC-1). With the exception of GRANTA-519, hematological cancer cell lines were cultured in RPMI-1640 supplemented with 10% fetal bovine serum (FBS), 2 mM glutamine, and 100 U/mL penicillin and streptomycin. For Granta-519 cells, DMEM was used in place of RPMI-1640.
Cell viability was evaluated by MTT colorimetric assay following the manufacturer's instructions. […]

Assay [2] concerns α-tubulin. The experiment in a line: Western blot of acetylation of α-tubulin. Format: cell-based. The following applies: lymphoma cells; extent not further modified by momelotinib. The procedure:
Lymphoma cell lines treated with 1 μM of momelotinib and 4 μM of citarinostat alone and in combination. […] Whole-cell lysates were subjected to western blotting using the indicated Abs. Tubulin was used to normalize protein loading. […] Whole-cell lysates were subjected to western blotting using the indicated Abs. Tubulin was used to normalize protein loading.
The combination treatment with momelotinib and Compound A leads JAK2/STAT3 pathway inactivation.

For `N#CCNC(=O)c1ccc(-c2ccnc(Nc3ccc(N4CCOCC4)cc3)n2)cc1` [Momelotinib, momelotinib, reference compound], the IC50 in assay [1] lay within 1.8 to 9.6 µM. Turning to `O=C(CCCCCCNC(=O)c1cnc(N(c2ccccc2)c2ccccc2Cl)nc1)NO` [Compound A, 2-((2-chlorophenyl)(phenyl)amino)-N-(7-(hydroxyamino)-7-oxoheptyl)pyrimidine-5-carboxamide], the IC50 in assay [1] lay within 1.51 to 60 µM. Besides, in assay [2], the “acetylation of α-tubulin” value is “induced the acetylation of α-tubulin”.
